According to PubChem BioAssay AID1552 (Sanford-Burnham Center for Chemical Genomics, 2009):
Calls of active or inactive are those of the source. The rule behind the calls is not given here.

Target: Ubiquitin-conjugating enzyme E2 N (Homo sapiens) (UniProt P61088)
Test: UBE2N binders by NMR, biophysical, purified protein (AID 1552)
Conditions: NMR binding to purified UBE2N

Sequence of Ubiquitin-conjugating enzyme E2 N (Homo sapiens) (P61088 whole entry, looked up): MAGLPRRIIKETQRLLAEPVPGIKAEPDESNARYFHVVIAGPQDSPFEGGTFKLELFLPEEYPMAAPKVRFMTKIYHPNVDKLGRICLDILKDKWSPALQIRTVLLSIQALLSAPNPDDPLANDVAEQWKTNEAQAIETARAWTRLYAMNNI

Row | Structure (SMILES) | Kd
1 | O=c1c(O)cc([C@H]2Oc3cc(O)cc(O)c3C[C@H]2O)cc2c([C@H]3Oc4cc(O)cc(O)c4C[C@H]3O)cc(O)c(O)c12 | > 4 mM (inactive)
2 | O=C1CC(=O)N(c2cccc(Cl)c2)N1 | > 4 mM (inactive)
3 | COc1ccc(-c2nc3nc(C)cc(C)n3n2)cc1 | > 4 mM (inactive)
4 | O/N=C1/CCCc2nonc21 | > 4 mM (inactive)
5 | CCCNC(=O)c1cnc2n(c1=O)CCS2 | > 4 mM (inactive)
6 | COc1c(CC=C(C)C)c2c(c3oc(=O)c(-c4ccc(O)cc4)c(O)c13)C=CC(C)(C)O2 | > 4 mM (inactive)
7 | NCc1nnnn1-c1ccccc1 | > 4 mM (inactive)
8 | Nc1cccc(F)c1-c1ncon1 | > 4 mM (inactive)
9 | O=C(c1ccc(N2CCNCC2)cc1)c1cccnc1 | > 4 mM (inactive)
10 | NC1=NC(=O)CC(C(=O)Nc2ccccc2)S1 (stereo unspecified) | > 4 mM (inactive)
11 | CC(=O)Oc1ccc2c(c1OC(C)=O)OCC1(O)Cc3c(cc(OC(C)=O)c(OC(C)=O)c3OC(C)=O)C21 (stereo unspecified) | > 4 mM (inactive)
12 | Cc1nc(NC(=O)c2cccnc2)ccc1Br | > 4 mM (inactive)
13 | O=C(O)C1CCCCN1Cc1ccccc1 (stereo unspecified) | > 4 mM (inactive)
14 | CC(=O)O[C@@H]1CC2C(C)(C)C(=O)C3OC3[C@]2(C)C2CC[C@@]3(C)[C@H](c4ccoc4)OC(=O)C4OC43[C@@]21C (stereo partly specified) | > 4 mM (inactive)
15 | COc1cc(S(=O)(=O)N(C)C)ccc1F | > 4 mM (inactive)
16 | O=c1ccc2ccccc2o1 | > 4 mM (inactive)
17 | Cc1cc(C(=O)N2CCOCC2)c(C)o1 | > 4 mM (inactive)
18 | CC(=O)Nc1cnn(Cc2ccc(Br)cc2)c1 | > 4 mM (inactive)
19 | NCc1csc(-c2ccccc2)n1 | > 4 mM (inactive)
20 | CC(=O)c1cc(-c2nc3ccccc3n2C)n(C)c1 | > 4 mM (inactive)
21 | O=c1cc(-c2ccc(O)cc2)oc2cc(O[C@@H]3O[C@H](CO)[C@@H](O)[C@H](O)[C@H]3O[C@@H]3OC[C@](O)(CO)[C@H]3O)cc(O)c12 | > 4 mM (inactive)
22 | COc1ccc(NC(=O)CSc2nccc(=O)[nH]2)cc1 | > 4 mM (inactive)

Row | Structure (SMILES) | Kd
23 | Cc1cc(C(=O)Nc2cccnc2)no1 | > 4 mM (inactive)
24 | CC(=O)N1CCn2c3c(c(=O)c4cc(C)ccc42)CCC31 (stereo unspecified) | > 4 mM (inactive)
25 | c1ccc2[nH]c(NCCN3CCOCC3)nc2c1 | > 4 mM (inactive)
26 | CCOC(=O)CC1Sc2ccccc2NC1=S (stereo unspecified) | > 4 mM (inactive)
27 | Cc1cc(-c2ccc(Cl)cc2)n2nc(N)nc2n1 | > 4 mM (inactive)
28 | COc1ccc2c(c1)OC/C(=C\c1ccc(OC)c(O)c1)C2=O | > 4 mM (inactive)
29 | O=C(NC(=O)N1CCOCC1)c1ccccc1 | > 4 mM (inactive)
30 | COc1cc2c(cc1OC)[C@@H]1C(=O)c3ccc4oc(C(C)C)cc4c3O[C@@H]1CO2 | > 4 mM (inactive)
31 | CC(C)=NNC(=O)c1ccccc1 | > 4 mM (inactive)
32 | C=CCCCCCCCCCCCC(O)CC(O)CO (stereo unspecified) (tested in a mixture with another compound) | > 4 mM (inactive)
33 | O=C1C2=C(SCCS2)C(=O)N1CCCO | > 4 mM (inactive)
34 | Cc1cc(C)n2nc(C(=O)NCc3ccco3)nc2n1 | > 4 mM (inactive)
35 | Cc1cc2ncn(S(=O)(=O)N3CCOCC3)c2cc1C | > 4 mM (inactive)
36 | NCc1ccc2sccc2c1 | > 4 mM (inactive)
37 | CC(=O)Nc1nnc(-c2ccccc2)o1 | > 4 mM (inactive)
38 | O=C(CS(=O)(=O)c1ccccc1)Nc1nccs1 | > 4 mM (inactive)
39 | N#Cc1cnn2c(C(F)(F)F)cc(C(F)(F)F)nc12 | > 4 mM (inactive)
40 | CC1(O)CC2C(CC1O)C2(C)C (stereo unspecified) | > 4 mM (inactive)
41 | CC1(C)CC2(CCO1)NCCN1C(=O)CSC12 (stereo unspecified) | > 4 mM (inactive)
42 | Cc1nc(-c2cc(CO)no2)cs1 | > 4 mM (inactive)
43 | Cc1nc2sccn2c1C(=O)O | > 4 mM (inactive)
44 | CC(C)(C)c1cc(N)n[nH]1 | > 4 mM (inactive)

Row | Structure (SMILES) | Kd
45 | CCC1(CC)C(=O)NC(=O)N=C1N | > 4 mM (inactive)
46 | CC(=O)Oc1cc(OC(C)=O)c2c(c1)O[C@H](c1ccc(OC(C)=O)c(OC(C)=O)c1)[C@H](OC(C)=O)C2 | > 4 mM (inactive)
47 | COc1cccc2c1CCC1=CC(=O)CC[C@@]12C | > 4 mM (inactive)
48 | CP(C)(=O)c1cccc(C(=O)O)c1 | > 4 mM (inactive)
49 | NC(=O)CSc1nnc2ccc(-c3ccco3)nn12 | > 4 mM (inactive)
50 | CNC[C@@H](O)c1ccc(O)c(O)c1 | > 4 mM (inactive)
51 | Cn1nc(-c2cccs2)cc1N | > 4 mM (inactive)
52 | CC(CO)NC(=O)C1C=C2c3cccc4[nH]cc(c34)C[C@H]2N(C)C1 (stereo partly specified) | > 4 mM (inactive)
53 | COc1cc2c(cc1OC)[C@@H]1C(=O)c3ccc4c(c3O[C@@H]1CO2)CC(C(C)C)O4 (stereo partly specified) | > 4 mM (inactive)
54 | NC(=NCCC[C@H](N)C(=O)O)NC(CCC(=O)O)C(=O)O (stereo partly specified) | > 4 mM (inactive)
55 | CC(=O)NN1C(=O)/C(=C\c2ccc(O)cc2)SC1=S | > 4 mM (inactive)
56 | CC(C)n1nnc2cc(C(=O)O)ccc21 | > 4 mM (inactive)
57 | O=C(Nc1cccnc1)c1cnn2cccnc12 | > 4 mM (inactive)
58 | COc1cc(C(=O)NCC2CCCO2)cc(OC)c1OC (stereo unspecified) | > 4 mM (inactive)
59 | COC(=O)c1cccnc1Oc1ccccc1 | > 4 mM (inactive)
60 | CC(=O)c1ccc2c(c1)OCCO2 | > 4 mM (inactive)
61 | Cc1cc[n+](-c2nc([O-])sc2C=O)cc1 | > 4 mM (inactive)
62 | O=C1CSC2=NCCCN12 | > 4 mM (inactive)
63 | COc1ccc2nc(NC(=O)c3cnccn3)sc2c1 | > 4 mM (inactive)
64 | CSc1nc2nccc(N)n2n1 | > 4 mM (inactive)
65 | N#Cc1sc2nc3c(c(-c4cccnc4)c2c1N)CCC3 | > 4 mM (inactive)
66 | O=c1[nH]c2ccccc2c(=O)n1CCCO | > 4 mM (inactive)

Row | Structure (SMILES) | Kd
67 | COc1ccc2c(c1)O[C@H]1c3ccc(OC)cc3OC[C@@H]21 | > 4 mM (inactive)
68 | CC(C)c1ccccc1NC(=O)c1cnccn1 | > 4 mM (inactive)
69 | O=C1C(=O)N(CNc2ncccn2)c2ccccc21 | > 4 mM (inactive)
70 | COC(=O)c1sc(N)nc1C | > 4 mM (inactive)
71 | Cn1nccc1N | > 4 mM (inactive)
72 | COC(=O)C1CSCC1=O (stereo unspecified) | > 4 mM (inactive)
73 | CC1CN(C2=NCCN2)CC(C)O1 (stereo unspecified) | > 4 mM (inactive)
74 | CCNCC(O)c1ccc([N+](=O)[O-])cc1 (stereo unspecified) | > 4 mM (inactive)
75 | Nc1ccc(OCc2ccccc2)cc1 | > 4 mM (inactive)
76 | COc1ccc2ccc(=O)oc2c1CC=C(C)C | > 4 mM (inactive)
77 | Cc1ccc(O)c(NC(=O)c2ccco2)c1 | > 4 mM (inactive)
78 | Cc1nn(C)c2sc(CO)cc12 | > 4 mM (inactive)
79 | Nc1cccc(NC(=O)c2cccs2)c1 | > 4 mM (inactive)
80 | CC(C)C(=O)NCC(c1ccco1)N1CCOCC1 (stereo unspecified) | > 4 mM (inactive)
81 | CCNS(=O)(=O)c1ccc(OC)c(C)c1 | > 4 mM (inactive)
82 | O=C(NCc1cccnc1)c1ccccn1 | > 4 mM (inactive)
83 | Cc1ccc(OCC(=O)n2cnnc2N)c(C)c1 | > 4 mM (inactive)
84 | [O-][n+]1cc(O)c(CN2CCOCC2)c2ccccc21 | > 4 mM (inactive)
85 | Cn1nnc2cc(C(=O)NCc3ccco3)ccc21 | > 4 mM (inactive)
86 | O=C(O)c1ccc2c(c1)OCO2 | > 4 mM (inactive)
